Laboratory results reported in ChEMBL document CHEMBL4813917, “2-((1-Phenyl-1H-1,2,3-triazol-4-yl)methyl)-2-azabicyclo[3.2.1]octan-3-one derivatives: Simplification and modification of aconitine scaffold for the discovery of novel anticancer agents” (Eur J Med Chem, 2021).
Activity calls are given as the source filed them. The calls are words filed in the database; no cut-off is given here.

Columns and labels:
SW-620 [1] = test: Induction of apoptosis in human SW-620 cells assessed as early apoptotic cells at 80 nM measured after 24 hrs by Annexin V/PI staining based flow cytometry method (reference value: 1.7%); format: functional
LoVo [2] = test: Cell cycle arrest in human LoVo cells assessed as accumulation of cells in G0/G1 phase at 20 to 80 nM measured after 24 hrs by PI staining based flow cytometry method; format: functional; settings: dose 20-80 nM
LoVo [3] = test: Induction of apoptosis in human LoVo cells assessed as viable cells at 80 nM measured after 24 hrs by Annexin V/PI staining based flow cytometry method (reference value: 93.5%); format: functional; settings: read-out: Activity
SW-620 [4] = test: Cell cycle arrest in human SW-620 cells assessed as accumulation of cells in G0/G1 phase at 20 to 80 nM measured after 24 hrs by PI staining based flow cytometry method; format: functional; settings: dose 20-80 nM
LoVo [5] = test: Induction of apoptosis in human LoVo cells assessed as early apoptotic cells at 80 nM measured after 24 hrs by Annexin V/PI staining based flow cytometry method (reference value: 1.6%); format: functional
SGC-7901 = test: Antiproliferative activity against human SGC-7901 cells assessed as inhibition of cell proliferation measured after 24 hrs by MTT assay; format: functional, cell-based; settings: SGC-7901, 24 h
SW-620 [6] = test: Induction of apoptosis in human SW-620 cells assessed as early apoptotic cells at 40 nM measured after 24 hrs by Annexin V/PI staining based flow cytometry method (reference value: 1.7%); format: functional
PANC-1 = test: Antiproliferative activity against human PANC-1 cells assessed as inhibition of cell proliferation measured after 24 hrs by MTT assay; format: functional, cell-based; settings: PANC-1, 24 h
A549 = test: Antiproliferative activity against human A549 cells assessed as inhibition of cell proliferation measured after 24 hrs by MTT assay; format: functional, cell-based; settings: A549, 24 h
LoVo [7] = test: Induction of apoptosis in human LoVo cells assessed as necrotic cells at 40 nM measured after 24 hrs by Annexin V/PI staining based flow cytometry method (reference value: 1.3%); format: functional
SW-620 [8] = test: Induction of apoptosis in human SW-620 cells assessed as late apoptotic cells at 40 nM measured after 24 hrs by Annexin V/PI staining based flow cytometry method (reference value: 1.3%); format: functional
SW-620 [9] = test: Induction of apoptosis in human SW-620 cells assessed as late apoptotic cells at 80 nM measured after 24 hrs by Annexin V/PI staining based flow cytometry method (reference value: 1.3%); format: functional
[10] = Cytotoxicity against human L02 cells assessed as reduction in cell viability measured after 24 hrs by MTT assay; format: cell-based
[11] = Cytotoxicity against human NCM460 cells assessed as reduction in cell viability measured after 24 hrs by MTT assay; format: cell-based
LoVo [12] = test: Antiproliferative activity against human LoVo cells assessed as inhibition of cell proliferation measured after 24 hrs by MTT assay; format: functional, cell-based
LoVo [13] = test: Induction of apoptosis in human LoVo cells assessed as increase in Bax levels at 20 to 80 nM measured after 24 hrs by Western blot assay; format: functional, cell-based; settings: dose 20-80 nM
[14] = Cytotoxicity against human HPDE6c7 cells assessed as reduction in cell viability measured after 24 hrs by MTT assay; format: functional
SW-620 [15] = test: Induction of apoptosis in human SW-620 cells assessed as early apoptotic cells at 20 nM measured after 24 hrs by Annexin V/PI staining based flow cytometry method (reference value: 1.7%); format: functional
SW-620 [16] = test: Induction of apoptosis in human SW-620 cells assessed as viable cells at 80 nM measured after 24 hrs by Annexin V/PI staining based flow cytometry method (reference value: 94%); format: functional; settings: read-out: Activity
LoVo [17] = test: Induction of apoptosis in human LoVo cells assessed as late apoptotic cells at 20 nM measured after 24 hrs by Annexin V/PI staining based flow cytometry method (reference value: 1.6%); format: functional
[18] = Cytotoxicity against human MRC5 cells assessed as reduction in cell viability measured after 24 hrs by MTT assay; format: cell-based
SW-620 [19] = test: Induction of apoptosis in human SW-620 cells assessed as increase in Bax levels at 20 to 80 nM measured after 24 hrs by Western blot assay; format: functional, cell-based; settings: dose 20-80 nM
LoVo [20] = test: Induction of apoptosis in human LoVo cells assessed as early apoptotic cells at 40 nM measured after 24 hrs by Annexin V/PI staining based flow cytometry method (reference value: 1.6%); format: functional
OVCAR-3 = test: Antiproliferative activity against human OVCAR-3 cells assessed as inhibition of cell proliferation measured after 24 hrs by MTT assay; format: functional, cell-based; settings: OVCAR-3, 24 h
[21] = Cytotoxicity against human IOSE80 cells assessed as reduction in cell viability measured after 24 hrs by MTT assay; format: cell-based
SW-620 [22] = test: Induction of apoptosis in human SW-620 cells assessed as necrotic cells at 20 nM measured after 24 hrs by Annexin V/PI staining based flow cytometry method (reference value: 3%); format: functional
[23] = Cytotoxicity against human GES1 cells assessed as reduction in cell viability measured after 24 hrs by MTT assay; format: cell-based
SW-620 [24] = test: Induction of apoptosis in human SW-620 cells assessed as decrease in Bcl-2 levels at 20 to 80 nM measured after 24 hrs by Western blot assay; format: functional, cell-based; settings: dose 20-80 nM
SW-620 [25] = test: Induction of apoptosis in human SW-620 cells assessed as viable cells at 40 nM measured after 24 hrs by Annexin V/PI staining based flow cytometry method (reference value: 94%); format: functional; settings: read-out: Activity
SW-620 [26] = test: Induction of apoptosis in human SW-620 cells assessed as necrotic cells at 80 nM measured after 24 hrs by Annexin V/PI staining based flow cytometry method (reference value: 3%); format: functional
LoVo [27] = test: Induction of apoptosis in human LoVo cells assessed as viable cells at 40 nM measured after 24 hrs by Annexin V/PI staining based flow cytometry method (reference value: 93.5%); format: functional; settings: read-out: Activity
LoVo [28] = test: Induction of apoptosis in human LoVo cells assessed as late apoptotic cells at 40 nM measured after 24 hrs by Annexin V/PI staining based flow cytometry method (reference value: 1.6%); format: functional
[29] = Toxicity in Balb/c mouse xenografted with human SW-620 cells assessed as changes in body weight at 5 mg/kg, ip measured after 21 days; format: organism-based; settings: in vivo, 504 h, time 21 day
SW-620 [30] = test: Induction of apoptosis in human SW-620 cells assessed as late apoptotic cells at 20 nM measured after 24 hrs by Annexin V/PI staining based flow cytometry method (reference value: 1.3%); format: functional
SW-620 [31] = test: Induction of apoptosis in human SW-620 cells assessed as necrotic cells at 40 nM measured after 24 hrs by Annexin V/PI staining based flow cytometry method (reference value: 3%); format: functional
LoVo [32] = test: Induction of apoptosis in human LoVo cells assessed as late apoptotic cells at 80 nM measured after 24 hrs by Annexin V/PI staining based flow cytometry method (reference value: 1.6%); format: functional
SW-620 [33] = test: Inhibition of cell migration in human SW-620 cells at 20 to 80 nM measured after 24 hrs by wound healing assay; format: functional, cell-based; settings: dose 20-80 nM
SW-620 [34] = test: Induction of apoptosis in human SW-620 cells assessed as increase in cleaved caspase-3 levels at 20 to 80 nM measured after 24 hrs by Western blot assay; format: functional, cell-based; settings: dose 20-80 nM

What does the source list for `CC1(C)[C@H]2CC[C@]1(C)N(Cc1cn(-c3cccc(Br)c3)nn1)C(=O)C2`?
Activity (SW-620 [1]): 20.6%; Activity (LoVo [2]): Active; viability at 0.08 µM (LoVo [3]): 61.7%; Activity (SW-620 [4]): Active; Activity (LoVo [5]): 7.4%; IC50 (SGC-7901): 0.12 µM; Activity (SW-620 [6]): 8.1%; IC50 (PANC-1): 0.09 µM; IC50 (A549): 0.09 µM; Activity (LoVo [7]): 1.6%; Activity (SW-620 [8]): 15.1%; Activity (SW-620 [9]): 29.3%; CC50 at 24 h [10]: 10.5 µM; CC50 at 24 h [11]: 14.6 µM; IC50 (LoVo [12]): 0.03 µM; Activity (LoVo [13]): Active; CC50 [14]: 13.8 µM; Activity (SW-620 [15]): 5.1%; viability at 0.08 µM (SW-620 [16]): 46.4%; Activity (LoVo [17]): 3.1%; CC50 at 24 h [18]: 38.8 µM; Activity (SW-620 [19]): Active; Activity (LoVo [20]): 3.2%; IC50 (OVCAR-3): 0.03 µM; CC50 at 24 h [21]: 9.55 µM; Activity (SW-620 [22]): 2.5%; CC50 at 24 h [23]: 9.93 µM; Activity (SW-620 [24]): Active; viability at 0.04 µM (SW-620 [25]): 75.5%; Activity (SW-620 [26]): 3.7%; viability at 0.04 µM (LoVo [27]): 89.8%; Activity (LoVo [28]): 5.4%; Activity [29]: Non-Toxic; Activity (SW-620 [30]): 8.5%; Activity (SW-620 [31]): 1.3%; Activity (LoVo [32]): 24.9%; inhibition (SW-620 [33]): Dose-Dependent Effect; Activity (SW-620 [34]): Active
